In patent publication US4072685A, “3-(3',4'-Disubstituted) phenyl piperidines” (Roussel Uclaf, priority 1975, dated 1978):
Counter-ions that a name gives are not always drawn.

Experiments:
reserpinic rigidity = test: Antagonism against reserpinic rigidity (electromyogram provoked by dorsiflexion of the foot); type: in vivo, rats; set-up: key to Antagonism against reserpine: expressed in an increasing number of + as a function of the dose in mg/Kg; ++: expressed in an increasing number of + as a function of the dose in mg/Kg; +++: expressed in an increasing number of + as a function of the dose in mg/Kg; settings: for Antagonism against reserpine: i.v., rats; for Antagonism against reserpinic rigidity, in words: results of Table I, Examples 5, 6 and 7 at a dose of 20 mg/kg
Experimental: The antagonism of the tested products against reserpinic rigidity was determined in rats using the procedure of Jurna I: Arch. Pharmak. Exp. Path., Vol. 260 (1968), p. 80-88 and the electromyogram (EMG) provoked by a dorsiflexion of the foot was determined with electrodes placed on the muscles of the anterior loge of the hind foot of the animal. A dose of 10 mg/Kg of reserpine was administered intraveinously and 30 minutes later when the muscle hypertonicity was maximal, the tested product was administered intraveinously at a dose of 10 or 20 mg/Kg. The electromyogram responses were determined before and after the administration of the tested compound and were compared for their intensity and duration.

[1] = Acute toxicity (50% lethal dose); settings: mouse, in vivo, ip, mice, mortality 48 hours after administration
Experimental: The 50% lethal dose (LD50) was determined for the products after intraperitoneal administration to mice and the mortality was determined 48 hours after the administration of the tested product.

[2] = system: nigrostriatal bundle (dopaminergic activity); test: Rotating behavior after unilateral injury of nigrostriatal bundle, test (a): anodic lesion of right striatum; type: in vivo; settings: i.p., male rats, 1 1/2 hours
Experimental: (§1) Among the animals having undergone a unilateral lesion of nigrostriatal bundle, the substances, having a dopaminergic activity induce a rotating behavior. The animals were male rats weighing about 250 g and female mice weighing about 22 g. The lesion was effected in test (a) in the right striatum of the male rats with a 2 mA anodic current for a duration of 30 seconds /Anden et al, Acta. Pharmacol. Toxicol., Vol. 24 (1966), p. 263-274/. The tested compounds were administered intraperitoneally to groups of 6 animals and they were individually placed in a rotometer which counted the number of rotations of each animal in two directions. Each test was continued for 11/2 hours.

[3] = system: nigrostriatal bundle (dopaminergic activity); test: Rotating behavior after unilateral injury of nigrostriatal bundle, test (b): 6-hydroxydopamine lesion of substantia nigra; type: in vivo; settings: i.p., male rats, 1 1/2 hours
Experimental: as §1
In test (b) with the male rats, lesion was effected in the substantia nigra of each rat with 6-hydroxydopamine monohydrochloride at a dose of 20 μg per 4 μl of physiological serum containing 0.2 mg/ml of ascorbic acid by the method of Ungerstedt /Acta. physiol. scand., 1971 a, supp 367, p. 69-93/and the same conditions as in (a) were used.

[4] = system: nigrostriatal bundle (dopaminergic activity); test: Rotating behavior after unilateral injury of nigrostriatal bundle, test (c): striatum lesion by aspiration; type: in vivo; settings: 100 mg/kg, i.p., female mice, observed for an hour
Experimental: as §1, with “Each test was continued for 11/2 hours.” left out
In test (c) with female mice, a lesion of the striatum was effected with a hypodermic needle with a diameter of 0.5 mm by aspiration under vacuum for 5 seconds with the method of Lotti /Life Science, Vol. 10 (1971) I, p. 781-789/.

carotid blood pressure = test: Hypotensive activity (carotid blood pressure, anesthetized rats); type: in vivo, male rats, Sprague-Dawley S.P.F.; settings: i.v.
Experimental: The hypotensive activity was determined on male rats of the Sprague-Dawley S.P.F. strain weighing about 300 g and anesthesized with nembutal at an intraveinous dose of 50 mg/kg. The test product was administered intraveinously into the jugular vein and the carotid blood pressure was measured before and after the administration of the tested compound. The variation in the arterial pressure after the administration of the tested compound as compared to the initial arterial pressure as well as the time necessary for the pressure to return to the initial value were determined.

Compound	Antagonism against reserpine (reserpinic rigidity; 20 mg/kg)	LD50 at 48 h [1]	rotations, test (a) ([2]; 25 mg/kg)	rotations, test (b) ([3]; 25 mg/kg)	Antagonism against reserpinic rigidity, in words (reserpinic rigidity)	other results
CN1CCCC(c2ccc(O)c(O)c2)C1 (stereo not drawn) [Example 1, N-methyl-3-(3',4'-dihydroxyphenyl)-piperidine hydrobromide]	++	150 mg/kg	–	–	–	–
CC(=O)Oc1ccc(C2CCCN(C)C2)cc1OC(C)=O (stereo not drawn) [Example 2, N-methyl-3-(3',4'-diacetoxyphenyl)-piperidine oxalate]	++	150 mg/kg	–	–	–	–
CCN1CCCC(c2ccc(O)c(O)c2)C1 (stereo not drawn) [Example 3, N-ethyl-3-(3',4'-dihydroxyphenyl)-piperidine hydrobromide]	+	150 mg/kg	ipsilateral rotations	contralateral rotations	–	–
CCCN1CCCC(c2ccc(O)c(O)c2)C1 (stereo not drawn) [Example 4, N-propyl-3-(3',4'-dihydroxyphenyl)-piperidine hydrobromide]	+	150 mg/kg	–	–	–	–
Oc1ccc(C2CCCN(Cc3ccccc3)C2)cc1O (stereo not drawn) [Example 5, N-benzyl-3-(3',4'-dihydroxyphenyl)-piperidine oxalate]	+++	150 mg/kg	ipsilateral rotation	contralateral rotations	very active	rotation, test (c) [4]: ipsilateral rotation
CC(=O)Oc1ccc(C2CCCN(Cc3ccccc3)C2)cc1OC(C)=O (stereo not drawn) [Example 6, N-benzyl-3-(3',4'-diacetoxyphenyl)-piperidine oxalate]	+++	300 mg/kg	ipsilateral rotation	contralateral rotations	very active	rotation, test (c) [4]: ipsilateral rotation; duration of hypotension (carotid blood pressure; 10 mg/kg, hypotension of 20 to 30%): more than one hour
Oc1ccc(C2CCCN(CCc3ccccc3)C2)cc1O (stereo not drawn) [Example 7, N-(β-phenylethyl)-3-(3',4'-dihydroxyphenyl)-piperidine fumarate]	–	150 mg/kg	–	–	very active	duration of hypotension (carotid blood pressure; 0.1 mg/kg, hypotension of 5 to 10%): 10 min; hypotension (carotid blood pressure; 1 mg/kg): 30%; duration of hypotension (carotid blood pressure; 1 mg/kg, hypotension of 30%): more than an hour; rotations, test (a) ([2]; 10 mg/kg): ipsilateral rotations; Antagonism against reserpine (reserpinic rigidity; 10 mg/kg): ++; rotations, test (b) ([3]; 10 mg/kg): contralateral rotations
CCCN1CCCC(c2ccc(OC(C)=O)c(OC(C)=O)c2)C1 (stereo not drawn) [Example 8, N-propyl-3-(3',4'-diacetoxyphenyl)-piperidine oxalate]	++	250 mg/kg	ipsilateral rotations	contralateral rotations	–	–
CC(C)N1CCCC(c2ccc(O)c(O)c2)C1 (stereo not drawn) [Example 9, N-isopropyl-3-(3',4'-dihydroxyphenyl)-piperidine hydrobromide]	+	150 mg/kg	–	–	–	–
C=CCN1CCCC(c2ccc(O)c(O)c2)C1 (stereo not drawn) [Example 10, N-allyl-3-(3',4'-dihydroxyphenyl)-piperidine hydrobromide]	–	150 mg/kg	–	contralateral rotations	–	–
